What all share (assay type): in vivo, rat
Assay [1] relates to Western diet fed Sprague Dawley rats. Nature of the assay: Fed plasma triglyceride (TG), Western diet fed rats, oral dosing. To be noted: 2 hours post dose; for increase in plasma TG in the fed state, relative to vehicle-administered Western diet fed rats: oral monotherapy; for reduction of plasma TG in the fed state, relative to vehicle-administered Western diet fed rats: oral. The procedure: (§1) A randomized, vehicle-controlled, 8-parallel arm study was conducted in male Sprague-Dawley rats (Charles River (Boston, MA)) to obtain circulating and hepatic TG levels. Standard laboratory conditions were used to house 96 rats (˜200 g); they were double housed and kept under 12:12-hour reverse light-dark schedule (lights off at 8:00 AM). Rats were randomized into chow or Western diet groups and dose groups upon arrival and were given a 14-day lead-in period on either standard rat chow or Western diet prior to the start of the study. Standard Laboratory Rodent chow diet, 5053, was from LabDiet (PMI, St Louis, Missouri). Western Diet, D12079Bi, was from Research Diets (New Brunswick, New Jersey).
For these studies, vehicle was prepared to make a 0.5% (wt/volume) of methyl cellulose (MC, Sigma Aldrich; 274429) in deionized water. The stock solutions with either Compound A (prepared from the tris salt) or Compound D were prepared with the respective compound to provide a concentration such that 10 ml of the solution would deliver the desired mg/kg dosage amount, where the average weight of the rats used was about 200 g.
Starting on Day 1 of the study, rats were dosed orally (10 mL/kg) with either vehicle control (0.5% MC (wt/volume %) in dionized water), low or high doses of Compound A (1 mg/kg or 10 mg/kg QD, respectively), low or high doses of Compound D (5 mg/kg or 30 mg/kg BID respectively), or co-administration of low doses (Compound A at 1 mg/kg QD and Compound D at 5 mg/kg BID), or co-administration of high doses (Compound A at 10 mg/kg QD and Compound D at 30 mg/kg BID)
Fed plasma analytes: Blood for determining fed plasma TG concentrations was collected 2 hours post dose (2 hours into the dark cycle) via lateral tail vein, transferred to BD Microtainer tubes coated with dipotassium ethylenediaminetetraacetic acid (K2EDTA) (PN365974), and centrifuged at 4° C. The resulting plasma samples were then analyzed on a Siemens Chemistry XPT clinical analyzer (Malven, PA) using Siemens triglycerides_2 assay reagents (ref 10335892).

Assay [2] deals with CDAHFD fed Male Wistar Hann rats. Nature of the assay: Liver stiffness by shearwave elastography, CDAHFD fed rats. Particulars: twice daily for 6 weeks, Compound A 5 mg/kg, Compound D 30 mg/kg, or co-administration. The procedure:
A randomized, vehicle-controlled, 5-parallel arm study was conducted in male Wistar-Han rats (Charles River (Boston, MA)) fed a choline-deficient and high fat diet (CDAHFD) (Research diets; A16092003) to identify differences in improvements in markers of hepatic inflammation and fibrosis when administering either Compound A or Compound D alone as monotherapy or in combination. Standard laboratory conditions were used to house 60 rats (˜200 g); they were double housed and kept under 12:12-hour reverse light-dark schedule (lights off at 8:00 AM). Rats were fed choline deficient and high fat diet (CDAHFD) beginning 6-weeks prior to initiation of the study. Rats, randomized into 4 dosing groups (n=12/group), received twice daily administration of vehicle, Compound A (5 mg/kg) monotherapy, Compound D (30 mg/kg) monotherapy, or co-administration Compound A (5 mg/kg) and Compound D (30 mg/kg) for a period of 6-weeks. Animals (n=12) remaining on normal chow throughout the study and administered twice-daily vehicle were used as a control group. Blood samples were collected prior to starting compound administration and 3- and 6-week post compound administration for the assessment of circulating markers. […] Histology was assessed following 6-weeks of drug administration which corresponded to 12 weeks on the CDAHFD. […]

Assay [3] deals with SREBP-1. In words: Nuclear SREBP-1 localization in liver (Western blot, normalized to Histone 2B), Western diet fed rats. Particulars: high dose (Compound A 10 mg/kg QD, Compound D 30 mg/kg BID); pooled liver samples per group. The protocol: as §1, with “Jersey). […]” for “Jersey).”
Nuclear and Membrane fractions were prepared by ultracentrifugation using standard methods from a portion of the pulverized liver samples, that were pooled per treatment group. Samples from the nuclear extract and the membrane fractions were analyzed by Western blotting for SREBP1. […] Nuclear SREBP1 levels were quantified using relative units and normalized to Histone 2B to control for sample loss during the nuclear fractionation and gel loading.
On the technique in general: In western blotting, separated proteins are transferred to a membrane and probed.

The subject of assay [4] is SCD1. Nature of the assay: Hepatic lipogenic gene expression (qPCR), Western diet fed rats: SCD1. To be noted: Actb housekeeping gene, Day 28 liver. The procedure:
as §1
(§2) Starting on Day 1 of the study, rats were dosed orally (10 mL/kg) with either vehicle control (0.5% MC (wt/volume %) in dionized water), low or high doses of Compound A (1 mg/kg or 10 mg/kg QD, respectively), low or high doses of Compound D (5 mg/kg or 30 mg/kg BID respectively), or co-administration of low doses (Compound A at 1 mg/kg QD and Compound D at 5 mg/kg BID), or co-administration of high doses (Compound A at 10 mg/kg QD and Compound D at 30 mg/kg BID) […]
(§3) Another portion of the pulverized liver was processed and analyzed for lipogenic gene expression. Rat taqman probes against ACC1, FASN, SCD1, PCSK9 and SREBP-1c were all assessed using Actb as housekeeping gene on qPCR.
On the technique in general: Quantitative PCR measures a nucleic acid by following its amplification.

The subject of assay [5] is fatty acid synthase (FASN). Nature of the assay: Hepatic lipogenic gene expression (qPCR), Western diet fed rats: FASN. Particulars: Actb housekeeping gene. The procedure: as §1, §2, §3

Take `COc1cc(C(=O)N2CCC3(CC2)CC(=O)c2c(cnn2C(C)C)C3)cc(-c2ccc(C(=O)O)cc2)n1` [Compound A, 4-(4-(1-isopropyl-7-oxo-1,4,6,7-tetrahydrospiro[indazole-5,4′-piperidine]-1′-carbonyl)-6-methoxypyridin-2-yl)benzoic acid]: the “increase in plasma TG in the fed state, relative to vehicle-administered Western diet fed rats” value in assay [1] (high dose (Compound A 10 mg/kg QD)) amounted to 1.3 fold; in assay [1] (low dose (Compound A 1 mg/kg QD)), 1.7 fold. Also, the “liver stiffness (shearwave elastography, kPa)” value in assay [2] is “reduced liver stiffness”. Besides, in assay [3], the “nuclear localization of SREBP-1, relative to vehicle treated Western diet fed rats” value is listed as “increased nuclear localization of SREBP-1”. In assay [4], the “hepatic SCD1 gene expression relative to Western Diet fed and vehicle treated animals” value is given as “trended to further increase”. Besides, in assay [5] (Compound A high dose only (10 mg/kg QD)), the “hepatic FASN gene expression relative to Western Diet fed and vehicle treated animals” value is recorded as “trended to further increase”.
Consider `CCOc1cccnc1Oc1cncc(-c2ncc(C(=O)N[C@H]3CCOC3)cn2)c1` [Compound D, (S)-2-(5-((3-ethoxypyridin-2-yl)oxy)pyridin-3-yl)-N-(tetrahydrofuran-3-yl)pyrimidine-5-carboxamide], for which the “reduction of plasma TG in the fed state, relative to vehicle-administered Western diet fed rats” value in assay [1] (high dose (Compound D 30 mg/kg BID; co-administration: Compound A 10 mg/kg QD and Compound D 30 mg/kg BID)) is recorded as 63%; in assay [1] (low dose (Compound D 5 mg/kg BID; co-administration: Compound A 1 mg/kg QD and Compound D 5 mg/kg BID)) it was 55%. Besides, the “liver stiffness (shearwave elastography, kPa)” value in assay [2] was “reduced liver stiffness”. For the same compound, the “nuclear localization of SREBP-1, relative to vehicle treated Western diet fed rats” value in assay [3] is given as “reduced SREBP-1 nuclear localization”. Further, in assay [4], the “hepatic SCD1 gene expression relative to Western Diet fed and vehicle treated animals” value is given as “decreased expression”. The “hepatic FASN gene expression relative to Western Diet fed and vehicle treated animals” value in assay [5] (Day 28 liver) is reported as “decreased expression”.
